This experiment relates to PKC mediated IL-2 production in human primary T cells. The experiment in a line: IL-2 ELISA, human primary T cell, anti CD3+CD28+ (whole cell functional assay for PKC mediated IL-2 production). It is filed as cell-based. In short, it runs like this: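 Primary human T cells (PBMC-derived, expanded on plate-bound anti-CD3/CD28 with IL-2, then IL-2-washed) were pre-incubated 1 h at 37 °C with compound, then stimulated on 1 μg/ml anti-CD3 plus 5 μg/ml anti-CD28. After 24 h at 37 °C, secreted IL-2 was measured by ELISA; counter assay used 0.5 ng/ml PMA plus 0.1 μM ionomycin (final).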
Background: In an ELISA, binding on a coated surface is turned into a signal by an enzyme label.

The mark [1] stands for this setting: 24 h, human primary T cells stimulated with anti-CD3 + anti-CD28, IL-2 by ELISA, read-out: IC50 for blocking IL-2 production.
Setting [2] is: human primary T cells stimulated with anti-CD3 + anti-CD28, 24 h, IL-2 by ELISA, 8 pt, read-out: IL2 ELISA, Human primary T cell, anti-CD3 + CD28, 8 pt (IC50).

Read-outs that look alike come from different tables or passages of the source.

Regarding `COc1cc(Nc2nccc(NC[C@@H]3CCCN4CCCC[C@H]34)n2)cc(-n2nnnc2C)c1` [Compound 52, N4-(((1S,9aR)-octahydro-1H-quinolizin-1-yl)methyl)-N2-(3-methoxy-5-(5-methyl-1H-tetrazol-1-yl)phenyl)pyrimidine-2,4-diamine], the IC50 runs as follows: under setting [1], under 30 µM; under setting [2], 0.442 µM.

Regarding `Cc1ccc(Nc2ncc(C#N)c(NC[C@@H]3CCCN4CCCC[C@H]34)n2)cc1C#N` [Compound 119, 4-(((1S,9aR)-octahydro-1H-quinolizin-1-yl)methylamino)-2-(3-cyano-4-methylphenylamino)pyrimidine-5-carbonitrile], the IC50 by setting is: under setting [1], under 30 µM; under setting [2], 0.0357 µM. The corresponding values for `COc1cnc(Nc2cccc(C#N)c2)nc1NC[C@@H]1CCCN2CCCC[C@H]12` [Compound 79, 3-(4-(((1S,9aR)-octahydro-1H-quinolizin-1-yl)methylamino)-5-methoxypyrimidin-2-ylamino)benzonitrile] are under 30 µM and 5.35 µM. The corresponding values for `COc1cc(Nc2ncc(C#N)c(NC[C@@H]3CCCN4CCCC[C@H]34)n2)cc(-n2nnnc2C)c1` [Compound 115, 4-(((1S,9aR)-octahydro-1H-quinolizin-1-yl)methylamino)-2-(3-methoxy-5-(5-methyl-1H-tetrazol-1-yl)phenylamino)pyrimidine-5-carbonitrile] are under 30 µM and 0.0225 µM. As to `Cc1ccc(Nc2ncc(C)c(NC[C@@H]3CCCN4CCCC[C@H]34)n2)cc1-n1cnnn1` [Compound 60, N4-(((1S,9aR)-octahydro-1H-quinolizin-1-yl)methyl)-5-methyl-N2-(4-methyl-3-(1H-tetrazol-1-yl)phenyl)pyrimidine-2,4-diamine], the IC50 was under 30 µM under setting [1] and 1.36 µM under setting [2].

For the compound `Cc1cnc(Nc2ccc(C3CC3)c(C#N)c2)nc1NC[C@@H]1CCCN2CCCC[C@H]12` [Compound 68, 5-(4-(((1S,9aR)-octahydro-1H-quinolizin-1-yl)methylamino)-5-methylpyrimidin-2-ylamino)-2-cyclopropylbenzonitrile], the IC50 under setting [1] was under 30 µM and the half-maximal inhibitory concentration (IC50) under setting [2] was 0.95 µM. In the same order, the values of `COc1ccc(Nc2ncc(F)c(NC[C@@H]3CCCN4CCCC[C@H]34)n2)cc1-n1nnnc1C` [Compound 6, 5-fluoro-N4-(((1S,9aR)-octahydro-1H-quinolizin-1-yl)methyl)-N2-(4-methoxy-3-(5-methyl-1H-tetrazol-1-yl)phenyl)pyrimidine-2,4-diamine] are under 30 µM and 0.0889 µM.

With `Cc1nnnn1-c1cc(Nc2ncc(C(N)=O)c(NC[C@@H]3CCCN4CCCC[C@H]34)n2)ccc1F` [Compound 126, 4-(((1S,9aR)-octahydro-1H-quinolizin-1-yl)methylamino)-2-(4-fluoro-3-(5-methyl-1H-tetrazol-1-yl)phenylamino)pyrimidine-5-carboxamide], the IC50 under setting [1] is under 30 µM and the IC50 under setting [2] came out at 1.6 µM. In the same order, the values of `COc1ccc(Nc2ncc(C(N)=O)c(NC[C@@H]3CCCN4CCCC[C@H]34)n2)cc1-n1nnnc1C` [Compound 125, 4-(((1S,9aR)-octahydro-1H-quinolizin-1-yl)methylamino)-2-(4-methoxy-3-(5-methyl-1H-tetrazol-1-yl)phenylamino)pyrimidine-5-carboxamide] are under 30 µM and 1.78 µM. As to `O=c1[nH]c2cc(Nc3nccc(NC[C@@H]4CCCN5CCCC[C@H]45)n3)ccc2o1` [Compound 58, 5-(4-(((1S,9aR)-octahydro-1H-quinolizin-1-yl)methylamino)pyrimidin-2-ylamino)benzo[d]oxazol-2(3H)-one], the IC50 runs as follows: under setting [1], under 30 µM; under setting [2], 18.6 µM. In the same order, the values of `Cc1ccc(Nc2ncc(Cl)c(NC[C@@H]3CCCN4CCCC[C@H]34)n2)cc1-n1cnnn1` [Compound 33, 5-chloro-N4-(((1S,9aR)-octahydro-1H-quinolizin-1-yl)methyl)-N2-(4-methyl-3-(1H-tetrazol-1-yl)phenyl)pyrimidine-2,4-diamine] are under 30 µM and 0.117 µM. The corresponding values for `N#Cc1cc(Nc2ncc(F)c(NC[C@@H]3CCCN4CCCC[C@H]34)n2)ccc1C1CC1` [Compound 1, 5-(4-(((1S,9aR)-octahydro-1H-quinolizin-1-yl)methylamino)-5-fluoropyrimidin-2-ylamino)-2-cyclopropylbenzonitrile] are under 30 µM and 0.107 µM. For the compound `Cc1nnnn1-c1ccc(F)c(Nc2ncc(C#N)c(NC[C@@H]3CCCN4CCCC[C@H]34)n2)c1` [Compound 118, 4-(((1S,9aR)-octahydro-1H-quinolizin-1-yl)methylamino)-2-(2-fluoro-5-(5-methyl-1H-tetrazol-1-yl)phenylamino)pyrimidine-5-carbonitrile], the IC50 runs as follows: under setting [1], under 30 µM; under setting [2], 0.076 µM. The corresponding values for `O=c1[nH]c2cc(Nc3ncc(Cl)c(NC[C@@H]4CCCN5CCCC[C@H]45)n3)ccc2o1` [Compound 44, 5-(4-(((1S,9aR)-octahydro-1H-quinolizin-1-yl)methylamino)-5-chloropyrimidin-2-ylamino)benzo[d]oxazol-2(3H)-one] are under 30 µM and 1.18 µM. As for `CC(O)COc1ccc(Nc2ncc(C#N)c(NC[C@@H]3CCCN4CCCC[C@H]34)n2)cc1C#N` (stereo partly drawn) [Compound 144, 2-((3-cyano-4-(2-hydroxypropoxy)phenyl)amino)-4-((((1S,9aR)-octahydro-2H-quinolizin-1-yl)methyl)amino)pyrimidine-5-carbonitrile], the IC50 under setting [1] is under 30 µM and the IC50 under setting [2] was found to be 12.4 µM. In the same order, the values of `Cc1ccc(Nc2nccc(NC[C@@H]3CCCN4CCCC[C@H]34)n2)cc1C#N` [Compound 54, 5-(4-(((1S,9aR)-octahydro-1H-quinolizin-1-yl)methylamino)pyrimidin-2-ylamino)-2-methylbenzonitrile] are under 30 µM and 1.1 µM. In the same order, the values of `C[C@H](O)COc1cc(F)c(Nc2ncc(C#N)c(NC[C@@H]3CCCN4CCCC[C@H]34)n2)cc1-n1nnn(C)c1=O` [Compound 142, 2-((2-fluoro-4-((S)-2-hydroxypropoxy)-5-(4-methyl-5-oxo-4,5-dihydro-1H-tetrazol-1-yl)phenyl)amino)-4-((((1 S,9aR)-octahydro-2H-quinolizin-1-yl)methyl)amino)pyrimidine-5-carbonitrile] are under 30 µM and 0.0662 µM. The corresponding values for `Fc1cc(Nc2ncc(F)c(NC[C@@H]3CCCN4CCCC[C@H]34)n2)cc(S(F)(F)(F)(F)F)c1` [Compound 30, 5-fluoro-N2-(3-pentafluorosulfanyl-5-fluoro-phenyl)-N4-(((1S,9aR)-octahydro-1H-quinolizin-1-yl)methyl)pyrimidine-2,4-diamine] are under 30 µM and 0.672 µM. On to `Cc1ccc(Nc2ncc(C(F)(F)F)c(NC[C@@H]3CCCN4CCCC[C@H]34)n2)cc1C#N` [Compound 108, 5-(4-(((1S,9aR)-octahydro-1H-quinolizin-1-yl)methylamino)-5-(trifluoromethyl)pyrimidin-2-ylamino)-2-methylbenzonitrile], for which the IC50 under setting [1] is under 30 µM. For the compound `COc1ccc(Nc2ncc(OC)c(NC[C@@H]3CCCN4CCCC[C@H]34)n2)cc1-n1nnnc1C` [Compound 77, N4-(((1S,9aR)-octahydro-1H-quinolizin-1-yl)methyl)-5-methoxy-N2-(4-methoxy-3-(5-methyl-1H-tetrazol-1-yl)phenyl)pyrimidine-2,4-diamine], the IC50 under setting [1] is under 30 µM and the IC50 under setting [2] turned out to be 2.42 µM. As for `O=c1[nH]c2cc(Nc3ncc(C(F)(F)F)c(NC[C@@H]4CCCN5CCCC[C@H]45)n3)ccc2o1` [Compound 112, 5-(4-(((1S,9aR)-octahydro-1H-quinolizin-1-yl)methylamino)-5-(trifluoromethyl)pyrimidin-2-ylamino)benzo[d]oxazol-2(3H)-one], the IC50 was under 30 µM under setting [1] and 21.7 µM under setting [2]. In the same order, the values of `Fc1cc(C2CC2)c(-n2cnnn2)cc1Nc1ncc(Cl)c(NC[C@@H]2CCCN3CCCC[C@H]23)n1` [Compound 32, 5-chloro-N2-(4-cyclopropyl-2-fluoro-5-(1H-tetrazol-1-yl)phenyl)-N4-(((1S,9aR)-octahydro-1H-quinolizin-1-yl)methyl)pyrimidine-2,4-diamine] are under 30 µM and 0.159 µM. Turning to `Cn1nnn(-c2cc(Nc3ncc(C#N)c(NC[C@@H]4CCCN5CCCC[C@H]45)n3)c(F)cc2OCC2(C)COC2)c1=O` [Compound 130, 2-((2-fluoro-5-(4-methyl-5-oxo-4,5-dihydro-1H-tetrazol-1-yl)-4-((3-methyloxetan-3-yl)methoxy)phenyl)amino)-4-((((1S,9aR)-octahydro-2H-quinolizin-1-yl)methyl)amino)pyrimidine-5-carbonitrile], the IC50 reads like this: under setting [1], under 30 µM; under setting [2], 0.444 µM. In the same order, the values of `Cc1nnnn1-c1cc(Nc2ncc(F)c(NC[C@@H]3CCCN4CCCC[C@H]34)n2)ccc1F` [Compound 8, 5-fluoro-N2-(4-fluoro-3-(5-methyl-1H-tetrazol-1-yl)phenyl)-N4-(((1S,9aR)-octahydro-1H-quinolizin-1-yl)methyl)pyrimidine-2,4-diamine] are under 30 µM and 0.106 µM. With `Cn1nnn(-c2cc(Nc3ncc(C#N)c(NC[C@@H]4CCCN5CCCC[C@H]45)n3)c(F)cc2OCCO)c1=O` [Compound 135, 2-((2-fluoro-4-(2-hydroxyethoxy)-5-(4-methyl-5-oxo-4,5-dihydro-1H-tetrazol-1-yl)phenyl)amino)-4-((((1S,9aR)-octahydro-2H-quinolizin-1-yl)methyl)amino)pyrimidine-5-carbonitrile], under setting [1], the IC50 is under 30 µM.

By IC50 is commonly meant the midpoint of a concentration-inhibition curve.

The record behind these values is patent US9913843B2, “Protein kinase C inhibitors and uses thereof” (Rigel Pharmaceuticals, Inc., priority 2012, dated 2018).
